Data: US8933107B2, “Pesticide thiazolyloxy substituted phenylamidine derivatives” (Bayer Cropscience AG, priority 2005, dated 2015)

Key:
physchem = conditions: reversed-phase HPLC column (C 18)
Sphaerotheca fuliginea = test: In vivo protective test on Sphaerotheca fuliginea (cucumbers); conditions: Podosphaera fuliginea, 168 h, 100 ppm of active ingredient, evaluated 7 days after inoculation, read-out: efficacy
[1] = tested on: Puccinia recondita f. Sp. tritici; test: In vivo preventive test on Puccinia recondita f. Sp. tritici (wheat brown rust); conditions: topical, 240 h, 1000 ppm of active ingredient, evaluated 10 days after inoculation, read-out: efficacy
Podosphaera leucotricha = test: In vivo protective test on Podosphaera leucotricha (apples); conditions: topical, 240 h, 100 ppm of active ingredient, evaluated 10 days after inoculation, read-out: efficacy
[2] = tested on: Erysiphe graminis f. sp. hordei; test: In vivo preventive test on Erysiphe gramini (powdery mildew on barley); conditions: Blumeria graminis, 168 h, 1000 ppm of active ingredient, evaluated 7 days after inoculation, read-out: efficacy
Alternaria solani = test: In vivo protective test on Alternaria solani (leaf spot of tomato); conditions: 168 h, 500 ppm of active ingredient, evaluated 7 days after inoculation, read-out: efficacy

chromatographic logP (physchem) | chromatographic logP (physchem; pH 2.3) | SMILES | pest or weed control at 100 ppm (Sphaerotheca fuliginea) | pest or weed control at 1000 ppm [1] | pest or weed control at 100 ppm (Podosphaera leucotricha) | pest or weed control at 1000 ppm [2] | pest or weed control at 500 ppm (Alternaria solani)
1.98 | – | Cc1cc(Oc2nc(C)c(C)s2)c(C)cc1/N=C/N(C)C(C)C [Compound 1.37] | – | – | – | – | –
1.7 | – | Cc1cc(Oc2nc(Cl)cs2)c(C)cc1/N=C/N(C)C(C)C [Compound 1.14] | – | – | – | – | ≥ 70%
2 | – | Cc1cc(Oc2nnc(-c3ccccc3)s2)c(C)cc1/N=C/N(C)C(C)C [Compound 3.6] | – | – | – | – | –
1.78 | – | CCN(C)/C=N/c1cc(C)c(Oc2nnc(C(F)(F)F)s2)cc1C [Compound 3.2] | – | ≥ 70% | – | ≥ 70% | ≥ 70%
1.84 | – | Cc1cc(Oc2nnc(C(F)(F)F)s2)c(C)cc1/N=C/N(C)C(C)C [Compound 3.1] | – | ≥ 70% | – | ≥ 70% | –
1.77 | – | Cc1cc(Oc2nc(C(C)C)ns2)ccc1/N=C/N(C)C(C)C [Compound 2.1] | – | – | – | – | –
2.04 | – | CCN(C)/C=N/c1ccc(Oc2nc(C(C)(C)C)ns2)cc1C [Compound 2.7] | – | ≥ 70% | ≥ 70% | – | ≥ 70%
2.87 | – | CCN(C)/C=N/c1cc(C)c(Oc2nc(Cl)c(C(C)(C)C)s2)cc1C [Compound 1.73] | – | ≥ 70% | – | – | –
1.57 | – | CCN(C)/C=N/c1ccc(Oc2nc(C(C)C)ns2)cc1C [Compound 2.2] | – | ≥ 70% | – | ≥ 70% | –
2.78 | – | CCN(C)/C=N/c1cc(C)c(Oc2nc(C(C)(C)C)c(Br)s2)cc1C [Compound 1.71] | – | ≥ 70% | ≥ 70% | – | ≥ 70%
2.18 | – | Cc1cc(Oc2nc(Cl)c(Cl)s2)c(C)cc1/N=C/N(C)C(C)C [Compound 1.3] | ≥ 70% | ≥ 70% | ≥ 70% | ≥ 70% | ≥ 70%
2.76 | – | CCN(C)/C=N/c1cc(C)c(Oc2nc(C(C)(C)C)c(Cl)s2)cc1C [Compound 1.4] | ≥ 70% | ≥ 70% | ≥ 70% | ≥ 70% | ≥ 70%
1.82 | – | CSc1nnc(Oc2cc(C)c(/N=C/N(C)C(C)C)cc2C)s1 [Compound 3.18] | – | – | – | – | –
1.69 | – | Cc1cc(Oc2nnc(C(C)C)s2)c(C)cc1/N=C/N(C)C(C)C [Compound 3.19] | – | – | – | – | –
1.93 | – | CCN(C)/C=N/c1cc(C)c(Oc2nnc(-c3ccccc3)s2)cc1C [Compound 3.3] | – | – | – | – | –
1.99 | – | CCN(C)/C=N/c1ccc(Oc2nc(Cl)c(Cl)s2)cc1C [Compound 1.39] | – | – | – | – | –
1.89 | – | Cc1cc(Oc2nc(C(C)C)ns2)c(C)cc1/N=C/N(C)C(C)C [Compound 2.4] | – | ≥ 70% | – | ≥ 70% | –
2.18 | – | CCN(C)/C=N/c1cc(C)c(Oc2ncc(C(C)(C)C)s2)cc1C [Compound 1.74] | – | ≥ 70% | ≥ 70% | – | ≥ 70%
1.8 | – | CCN(C)/C=N/c1cc(C)c(Oc2nc(Cl)c(C)s2)cc1C [Compound 1.17] | – | ≥ 70% | ≥ 70% | ≥ 70% | ≥ 70%
2.22 | – | CCCc1sc(Oc2cc(C)c(/N=C/N(C)CC)cc2C)nc1C [Compound 1.36] | – | – | – | – | –
2.29 | – | CCCc1sc(Oc2cc(C)c(/N=C/N(C)C(C)C)cc2C)nc1C [Compound 1.35] | – | – | – | – | –
2.15 | – | CCN(C)/C=N/c1cc(C)c(Oc2nc(C(F)(F)F)c(Cl)s2)cc1C [Compound 1.5] | ≥ 70% | ≥ 70% | ≥ 70% | ≥ 70% | ≥ 70%
2.79 | – | Cc1cc(Oc2nc(C(C)(C)C)c(Cl)s2)c(C)cc1/N=C/N(C)C(C)C [Compound 1.64] | – | – | – | – | ≥ 70%
2.12 | 2.04 | CCN(C)/C=N/c1cc(C)c(Oc2nc(Cl)c(Cl)s2)cc1C [Compound 1.1, N′-{4-[(4,5-dichloro-1,3-thiazol-2-yl)oxy]-2,5-dimethylphenyl}-N-ethyl-N-methylimidoformamide] | ≥ 70% | ≥ 70% | ≥ 70% | ≥ 70% | ≥ 70%
1.87 | – | CCN(C)/C=N/c1cc(C)c(Oc2nc(C)c(C)s2)cc1C [Compound 1.38] | – | – | – | – | –
1.69 | – | Cc1cc(Oc2nc(Cl)c(C)s2)c(C)cc1/N=C/N(C)C [Compound 1.31] | – | – | – | – | –
1.6 | – | CCN(C)/C=N/c1cc(C)c(Oc2nc(Cl)cs2)cc1C [Compound 1.18] | ≥ 70% | ≥ 70% | ≥ 70% | ≥ 70% | –
1.56 | – | CCN(C)/C=N/c1cc(C)c(Oc2nc(Cl)ns2)cc1C [Compound 2.5] | – | – | – | – | –
1.61 | – | CCN(C)/C=N/c1cc(C)c(Oc2nnc(C(C)C)s2)cc1C [Compound 3.22] | – | – | – | – | –

Continued, molecule first:

SMILES | chromatographic logP (physchem) | chromatographic logP (physchem; pH 2.3) | pest or weed control at 100 ppm (Sphaerotheca fuliginea) | pest or weed control at 1000 ppm [1] | pest or weed control at 100 ppm (Podosphaera leucotricha) | pest or weed control at 1000 ppm [2] | pest or weed control at 500 ppm (Alternaria solani)
CCN(C)/C=N/c1cc(C)c(Oc2nc(-c3ccccc3)cs2)cc1C [Compound 1.60] | 2.18 | – | – | – | – | – | –
Cc1cc(Oc2nc(-c3ccccc3)cs2)c(C)cc1/N=C/N(C)C(C)C [Compound 1.61] | 2.25 | – | – | – | – | – | –
CCN(C)/C=N/c1cc(C)c(Oc2nc(Cl)c(Br)s2)cc1C [Compound 1.6] | 2 | – | ≥ 70% | ≥ 70% | ≥ 70% | ≥ 70% | –
CCN(C)/C=N/c1cc(C)c(Oc2nc(C(C)(C)C)cs2)cc1C [Compound 1.75] | 2.26 | – | – | ≥ 70% | ≥ 70% | – | –
CCN(C)/C=N/c1cc(C)c(Oc2nc(C#N)c(Cl)s2)cc1C [Compound 1.72] | 1.74 | – | – | ≥ 70% | ≥ 70% | – | –
CCN(C)/C=N/c1cc(C)c(Oc2nnc(SC)s2)cc1C [Compound 3.21] | 1.69 | – | – | – | – | – | ≥ 70%
CCN(C)/C=N/c1cc(C)c(Oc2nc(C)c(Cl)s2)cc1C [Compound 1.12] | 1.98 | – | ≥ 70% | ≥ 70% | ≥ 70% | ≥ 70% | ≥ 70%
CCN(C)/C=N/c1cc(C)c(Oc2nc(Cl)c(C=O)s2)cc1C [Compound 1.62] | 1.68 | – | – | – | – | – | –
Cc1cc(Oc2nc(C(F)(F)F)c(Cl)s2)c(C)cc1/N=C/N(C)C(C)C [Compound 1.10] | 2.29 | – | ≥ 70% | ≥ 70% | ≥ 70% | ≥ 70% | –
Cc1cc(Oc2nc(Cl)ns2)c(C)cc1/N=C/N(C)C(C)C [Compound 2.6] | 1.67 | – | – | – | – | – | –
Cc1cc(Oc2nc(C)c(C)s2)ccc1/N=C/N(C)C(C)C [Compound 1.34] | 1.66 | – | – | – | – | – | –
CCN(C)/C=N/c1cc(C)c(Oc2nc(C(C)C)ns2)cc1C [Compound 2.3] | 1.74 | – | ≥ 70% | ≥ 70% | ≥ 70% | ≥ 70% | ≥ 70%
CCN(C)/C=N/c1cc(C)c(Oc2nc(C(C)C)c(Cl)s2)cc1C [Compound 1.20] | 2.52 | – | – | ≥ 70% | – | ≥ 70% | ≥ 70%
CCN(C)C=Nc1cc(C)c(Oc2nc(C=NOC(C)(C)C)c(Cl)s2)cc1C [Compound 1.44, N′-[4-({4-[(tert-butoxyimino)methyl]-5-chloro-1,3-thiazol-2-yl}oxy)-2,5-dimethylphenyl]-N-ethyl-N-methylimidoformamide] | 2.65 | 2.65 | – | – | – | – | –
CCN(C)/C=N/c1ccc(Oc2nc(C)c(C)s2)cc1C [Compound 1.33] | 1.65 | – | – | – | – | – | –
CCN(C)/C=N/c1cc(C)c(Oc2nc(C=O)c(Cl)s2)cc1C [Compound 1.42, N′-{4-[(5-chloro-4-formyl-1,3-thiazol-2-yl)oxy]-2,5-dimethylphenyl}-N-ethyl-N-methylimidoformamide] | 1.46 | 1.51 | – | – | – | – | –
CCN(C)/C=N/c1cc(C)c(Oc2nc(C)c(C(C)=O)s2)cc1C [Compound 1.27] | 1.5 | – | – | – | – | – | ≥ 70%
Cc1cc(Oc2nc(Cl)c(Cl)s2)c(C)cc1N [II-1, 4-[(4,5-dichloro-1,3-thiazol-2-yl)oxy]-2,5-dimethylaniline] | – | 3.4 | – | – | – | – | –
Cc1cc(Oc2nc(C)c(Cl)s2)c(C)cc1/N=C/N(C)C(C)C [Compound 1.13] | 2.14 | – | – | ≥ 70% | – | ≥ 70% | ≥ 70%
CCN(C)/C=N/c1cc(C)c(O)cc1C [IX-a, N-ethyl-N′-(4-hydroxy-2,5-dimethylphenyl)-N-methylimidoformamide] | – | 0.41 | – | – | – | – | –
Cc1cc(Oc2nc(Cl)c(Cl)s2)ccc1/N=C/N(C)C(C)C [Compound 1.28] | 2.09 | – | – | ≥ 70% | – | ≥ 70% | –
